Results: patent US20080194585A1, “Fungicidal Pyrazine Derivatives” (priority 2005, published 2008)
Marks after values point to notes of the source that are not given here.

Tests used:
[1] = tested on: Colletotrichum orbiculare; experiment: Test B: cucumber Colletotrichum anthracnose, preventive spray on cucumber seedlings
Phytophthora infestans = experiment: whole plant or invertebrate; type: in vivo
Pythium aphanidermatum = experiment: Test A: bluegrass pythium blight, preventive spray on bluegrass seedlings
[2] = tested on: Erysiphe graminis f. sp. tritici; experiment: Test L: wheat powdery mildew, preventive spray on wheat seedlings
Plasmopara viticola = experiment: Test D: grape downy mildew, spray after inoculation of grape seedlings; type: in vivo
From the text: Upon removal, disease ratings were made. […] A dash (-) indicates no test results.

Septoria tritici = experiment: Test J: wheat leaf blotch, preventive spray on wheat seedlings; type: in vivo
From the text: A dash (-) indicates no test results.

Botrytis cinerea = experiment: Test E: tomato botrytis, preventive spray on tomato seedlings
Septoria nodorum = experiment: Test H: wheat glum blotch, preventive spray on wheat seedlings
Description: (the causal agent of wheat glum blotch) and incubated in a saturated atmosphere at 20° C. for 48 h, and then moved to a growth chamber at 22° C. for 5 days, after which disease ratings were made.

fusarium graminearium = experiment: Test I: wheat head scab, preventive spray on wheat seedlings
Description: (the causal agent of wheat head scab) and incubated in a saturated atmosphere at 20° C. for 72 h, and then moved to a growth chamber at 22° C. for 5 days, after which disease ratings were made.

[3] = tested on: Puccinia recondita f. sp. tritici; experiment: Test K: wheat leaf rust, preventive spray on wheat seedlings
Rhizoctonia oryzae = experiment: Test G: turf brown patch, preventive spray on creeping bent grass seedlings
Description: (the causal agent of turf brown patch) and incubated in a saturated atmosphere at 27° C. for 24 h, and then moved to a growth chamber at 27° C. for 5 days, after which disease ratings were made.

[4] = 40 ppm (marked *), 100 = 100% disease control, 0 = no control
[5] = 200 ppm, 100 = 100% disease control, 0 = no control relative to controls
[6] = 200 ppm, 100 = 100% disease control, 0 = no control

Structure (SMILES)	Test B disease control rating [1, 4]	Test F disease control rating (Phytophthora infestans; [4])	Test A disease control rating (Pythium aphanidermatum; [4])	Test L disease control rating [2, 4]	Test D disease control rating (Plasmopara viticola; [4])	Test J disease control rating (Septoria tritici; [4])	Test E disease control rating (Botrytis cinerea; [4])	Test H disease control rating (Septoria nodorum; [4])	Test I disease control rating (fusarium graminearium; [4])	Test K disease control rating [3, 4]	Test G disease control rating (Rhizoctonia oryzae; [4])	further results
CCCCn1c(-c2ccc(F)cc2Cl)c(Br)nc(N2CCC=N2)c1=O [compound 286]	0* %	41* %	0* %	0* %	0* %	37* %	97* %	0* %	0* %	0* %	0* %	–
Cc1ccn(-c2nc(Cl)c(-c3c(F)cc(F)cc3F)n(-c3ccccc3Cl)c2=O)n1 [compound 376]	100* %	0* %	0* %	100* %	–	100* %	99* %	100* %	0* %	100* %	98* %	Test D disease control rating (Plasmopara viticola; [5]): 40%
O=c1c(-n2cncn2)nc(Cl)c(-c2c(F)cccc2F)n1Cc1ccco1 [compound 188]	–	–	–	–	–	–	–	–	–	–	–	Test B disease control rating ([1]; 40 ppm (*)): 0* %; Test F disease control rating (Phytophthora infestans; 40 ppm (*)): 0* %; Test A disease control rating (Pythium aphanidermatum; 40 ppm (*)): 0* %; Test L disease control rating ([2]; 40 ppm (*)): 0* %; Test D disease control rating (Plasmopara viticola; 40 ppm (*)): 0* %; Test J disease control rating (Septoria tritici; 40 ppm (*)): 23* %; Test E disease control rating (Botrytis cinerea; 40 ppm (*)): 56* %; Test H disease control rating (Septoria nodorum; 40 ppm (*)): 0* %; Test I disease control rating (fusarium graminearium; 40 ppm (*)): 0* %; Test K disease control rating ([3]; 40 ppm (*)): 0* %; Test G disease control rating (Rhizoctonia oryzae; 40 ppm (*)): 0* %
CC[C@H](C)Cn1c(-c2ccc(F)cc2Cl)c(Cl)nc(N2CCC=N2)c1=O [compound 264]	81* %	80* %	0* %	83* %	0* %	100* %	99* %	0* %	0* %	91* %	0* %	–
O=c1c(-n2cccn2)nc(Cl)c(-c2c(F)cc(F)cc2F)n1Cc1cccc(C(F)(F)F)c1 [compound 347]	0* %	–	–	25* %	–	83* %	0* %	0* %	–	93* %	0* %	Test F disease control rating (Phytophthora infestans; [6]): 0%; Test A disease control rating (Pythium aphanidermatum; [6]): 0%; Test D disease control rating (Plasmopara viticola; [6]): 0%; Test I disease control rating (fusarium graminearium; [6]): 0%
CSCCn1c(-c2c(F)cccc2F)c(Cl)nc(-n2ccc(C)n2)c1=O [compound 311]	0* %	0* %	0* %	0* %	0* %	74* %	94* %	0* %	0* %	74* %	0* %	–
Cc1ccn(-c2nc(Cl)c(-c3c(F)cc(F)cc3F)n(-c3cccc(Cl)c3)c2=O)n1 [compound 374]	100* %	0* %	0* %	100* %	0* %	100* %	99* %	100* %	0* %	100* %	78* %	–
O=c1c(-n2cccn2)nc(Cl)c(-c2c(F)cc(F)cc2F)n1Cc1ccc(Br)cc1 [compound 377]	31* %	–	0* %	94* %	0* %	100* %	99* %	0* %	–	98* %	0* %	Test F disease control rating (Phytophthora infestans; [5]): 0%; Test I disease control rating (fusarium graminearium; [5]): 0%
CCC(C)Cn1c(-c2ccc(F)cc2Cl)c(Cl)nc(-n2ccc(C)n2)c1=O (centres unmarked) [Compound 170, 5-Chloro-6-(2-chloro-4-fluorophenyl)-1-(2-methylbutyl)-3-(3-methyl-1H-pyrazol-1-yl)-2(1H)-pyrazinone]	–	–	–	–	–	–	–	–	–	–	–	pest or weed control at 40 ppm ([1]; Colletotrichum orbiculare, in Cucumis sativus, 144 h, read-out: Test B disease control rating, 40 ppm (*)): 100%; pest or weed control at 40 ppm (Phytophthora infestans; Phytophthora infestans, in Solanum lycopersicum, topical, 144 h, read-out: Test F disease control rating): 0%; pest or weed control at 40 ppm (Pythium aphanidermatum; Pythium aphanidermatum, 120 h, read-out: Test A disease control rating): 0%; pest or weed control at 40 ppm ([2]; Blumeria graminis, in Triticum aestivum, 168 h, read-out: Test L disease control rating, 40 ppm (*)): 99%; pest or weed control at 40 ppm (Plasmopara viticola; Plasmopara viticola, 168 h, 40 ppm (*), read-out: Test D disease control rating): 0%; pest or weed control at 40 ppm (Septoria tritici; Zymoseptoria tritici, 528 h, 40 ppm (*), read-out: Test J disease control rating): 100%; pest or weed control at 40 ppm (Botrytis cinerea; Botrytis cinerea, in Solanum lycopersicum, topical, 72 h, read-out: Test E disease control rating): 100%; pest or weed control at 40 ppm (Septoria nodorum; Parastagonospora nodorum, in Triticum aestivum, topical, 168 h, read-out: Test H disease control rating, 40 ppm (*)): 100%; pest or weed control at 40 ppm (fusarium graminearium; Fusarium, in Triticum aestivum, topical, 192 h, read-out: Test I disease control rating, 40 ppm (*)): 0%; pest or weed control at 40 ppm ([3]; Puccinia recondita, in Triticum aestivum, 192 h, read-out: Test K disease control rating): 100%; pest or weed control at 40 ppm (Rhizoctonia oryzae; Waitea circinata, in Agrostis stolonifera, topical, 144 h, read-out: Test G disease control rating, 40 ppm (*)): 26%
Cc1ccc(-c2c(Cl)nc(-n3cncn3)c(=O)n2CC(C)C)c(C)c1 [compound 79]	–	–	–	–	–	–	–	–	–	–	–	Test B disease control rating ([1]; 200 ppm): 83%; Test F disease control rating (Phytophthora infestans; 200 ppm): 0%; Test A disease control rating (Pythium aphanidermatum; 200 ppm): 0%; Test L disease control rating ([2]; 200 ppm): 92%; Test D disease control rating (Plasmopara viticola; 200 ppm): 0%; Test J disease control rating (Septoria tritici; 200 ppm): 100%; Test E disease control rating (Botrytis cinerea; 200 ppm): 100%; Test H disease control rating (Septoria nodorum; 200 ppm): 100%; Test I disease control rating (fusarium graminearium; 200 ppm): 0%; Test K disease control rating ([3]; 200 ppm): 97%; Test G disease control rating (Rhizoctonia oryzae; 200 ppm): 46%
